Active and inactive are the calls of the source.
Assays:
[1] = viability of uninfected HEp-2 cells – cell-based, HTS, cytotoxicity control for RSV inhibitor project, dose response (AID 2410); type: functional; settings: human respiratory syncytial virus
Vero = experiment: cells; type: functional, cell-based; settings: Chlorocebus sabaeus
[2] = molecular target: Luciferin 4-monooxygenase (Photinus pyralis, UniProt P08659); experiment: inhibition of purified Photinus pyralis luciferase – biochemical, luminescence, dose response (AID 1891)
[3] = Luminescence Cell-Based Dose Confirmation HTS to Identify Inhibitors of Platelet Dense Granule Release. [Related pubchem assays: 1663 (Primary HTS), 1678 (Summary of Project)]; type: functional
Protein skinhead-1 = molecular target: T1, Protein skinhead-1 (Caenorhabditis elegans, UniProt P34707); type: functional
T1 sequence (P34707 whole entry): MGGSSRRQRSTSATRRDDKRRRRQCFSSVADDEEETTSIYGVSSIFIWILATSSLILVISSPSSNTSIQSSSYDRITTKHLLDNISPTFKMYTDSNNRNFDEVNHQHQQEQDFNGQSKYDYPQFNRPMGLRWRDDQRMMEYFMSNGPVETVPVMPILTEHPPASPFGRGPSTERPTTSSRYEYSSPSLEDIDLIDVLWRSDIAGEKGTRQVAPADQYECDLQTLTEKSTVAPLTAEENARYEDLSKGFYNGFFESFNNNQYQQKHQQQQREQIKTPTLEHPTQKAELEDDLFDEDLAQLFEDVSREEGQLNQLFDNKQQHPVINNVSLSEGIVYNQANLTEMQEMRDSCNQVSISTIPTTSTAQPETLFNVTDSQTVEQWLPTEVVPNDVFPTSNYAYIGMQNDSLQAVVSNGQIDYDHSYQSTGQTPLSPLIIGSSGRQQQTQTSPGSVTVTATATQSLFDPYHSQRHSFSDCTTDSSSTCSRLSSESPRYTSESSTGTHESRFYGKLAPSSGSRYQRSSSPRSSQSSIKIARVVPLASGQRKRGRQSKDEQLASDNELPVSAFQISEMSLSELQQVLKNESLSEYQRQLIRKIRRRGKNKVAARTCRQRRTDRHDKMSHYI

[4] = Luminescence-based cell-based high throughput dose response assay to identify activators of the DAF-12 from the parasite S. stercoralis (ssDAF-12).; type: functional
[5] = reduction of Shn3 3'UTR-driven luciferase in osteoblasts – cell-based, Clone20 osteoblasts, firefly luciferase, cherry-picked, dose response (AID 624132); type: functional;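 note: firefly luciferase luminescence from reporter carrying the Shn3 3'UTR in osteoblasts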
P388/ADR = experiment: cells; type: functional; settings: Mus musculus
[6] = non-specific 3'UTR reporter inhibition in Clone20-Shn3RL – cell-based, Renilla luciferase, cherry-picked, counter-screen for Shn3 inhibitor project, dose response (AID 624133); type: functional
SN12K1 = experiment: cells; type: functional; settings: Homo sapiens
P388 = experiment: cells; type: functional; settings: Mus musculus
Paired box protein Pax-8 = Paired box protein Pax-8 (Homo sapiens, UniProt Q06710); experiment: PAX8 transcriptional activity inhibition in RMG-I – RMG-I cells, luciferase, cherry-pick, dose response (AID 687027); type: functional, cell-based;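 note: luciferase reporter driven by Pax8 target thyroperoxidase promoter measured by SteadyGlo luminescence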
[7] = molecular target: T2, COUP transcription factor 2 (Homo sapiens, UniProt P24468); experiment: Luminescence-based cell-based high throughput dose response assay to identify inhibitors of COUP-TFII (NR2F2).; type: functional;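 note: HEK293 cells transiently cotransfected with COUP-TFII expression vector and reporter; luciferase reporter luminescence driven by COUP-TFII from the pX2-168 reporter plasmid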
T2 sequence (P24468 whole entry): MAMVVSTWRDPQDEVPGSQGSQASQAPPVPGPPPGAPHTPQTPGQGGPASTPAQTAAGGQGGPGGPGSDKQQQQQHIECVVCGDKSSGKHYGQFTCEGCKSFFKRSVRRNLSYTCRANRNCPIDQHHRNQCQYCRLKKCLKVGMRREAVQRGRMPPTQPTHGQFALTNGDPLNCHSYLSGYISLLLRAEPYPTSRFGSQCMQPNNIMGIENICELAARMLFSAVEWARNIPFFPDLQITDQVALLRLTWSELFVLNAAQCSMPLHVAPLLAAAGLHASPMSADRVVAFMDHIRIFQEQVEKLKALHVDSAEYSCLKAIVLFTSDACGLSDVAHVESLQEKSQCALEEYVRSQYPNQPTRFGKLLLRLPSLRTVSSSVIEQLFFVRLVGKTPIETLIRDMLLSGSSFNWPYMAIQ

[8] = molecular target: T3, Dual specificity protein phosphatase 6 (Rattus norvegicus, UniProt Q64346); experiment: inhibition of rat DUSP6 enzyme activity – biochemical, in vitro, primary screen (AID 425)
T3 sequence (Q64346 whole entry): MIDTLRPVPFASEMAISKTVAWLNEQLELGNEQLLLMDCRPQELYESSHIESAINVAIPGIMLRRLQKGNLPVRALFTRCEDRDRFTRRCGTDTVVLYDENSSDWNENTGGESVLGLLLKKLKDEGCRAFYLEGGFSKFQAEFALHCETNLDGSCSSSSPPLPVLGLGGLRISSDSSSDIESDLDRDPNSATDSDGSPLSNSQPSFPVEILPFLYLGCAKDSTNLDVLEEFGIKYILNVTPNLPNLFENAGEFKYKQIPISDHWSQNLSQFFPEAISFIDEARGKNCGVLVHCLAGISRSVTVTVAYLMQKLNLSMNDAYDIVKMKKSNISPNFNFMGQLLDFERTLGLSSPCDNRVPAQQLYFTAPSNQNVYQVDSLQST

[9] = molecular target: Neurotensin receptor type 1 (Homo sapiens, UniProt P30989); type: functional;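 note: Image-based confirmatory dose-response assay measuring agonist activity at NTR1; NTR1-expressing U2OS osteosarcoma cells imaged for beta-arrestin GFP spot formation; agonist potency where compounds increase beta-arrestin recruitment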
Genome polyprotein = Genome polyprotein (dengue virus type 2, UniProt P29990); experiment: flavivirus cap methylation enzyme inhibition – biochemical, confirmation dose response, primary screen (AID 588689); type: functional
[10] = molecular target: T4, Rac GTPase-activating protein 1 (Homo sapiens, UniProt Q9H0H5); experiment: blockers of MgcRacGAP-driven Rac1 GTP hydrolysis – biochemical, ADP Hunter fluorescence, primary and confirmatory, confirmation (AID 624330); type: functional
T4 sequence (Q9H0H5 whole entry): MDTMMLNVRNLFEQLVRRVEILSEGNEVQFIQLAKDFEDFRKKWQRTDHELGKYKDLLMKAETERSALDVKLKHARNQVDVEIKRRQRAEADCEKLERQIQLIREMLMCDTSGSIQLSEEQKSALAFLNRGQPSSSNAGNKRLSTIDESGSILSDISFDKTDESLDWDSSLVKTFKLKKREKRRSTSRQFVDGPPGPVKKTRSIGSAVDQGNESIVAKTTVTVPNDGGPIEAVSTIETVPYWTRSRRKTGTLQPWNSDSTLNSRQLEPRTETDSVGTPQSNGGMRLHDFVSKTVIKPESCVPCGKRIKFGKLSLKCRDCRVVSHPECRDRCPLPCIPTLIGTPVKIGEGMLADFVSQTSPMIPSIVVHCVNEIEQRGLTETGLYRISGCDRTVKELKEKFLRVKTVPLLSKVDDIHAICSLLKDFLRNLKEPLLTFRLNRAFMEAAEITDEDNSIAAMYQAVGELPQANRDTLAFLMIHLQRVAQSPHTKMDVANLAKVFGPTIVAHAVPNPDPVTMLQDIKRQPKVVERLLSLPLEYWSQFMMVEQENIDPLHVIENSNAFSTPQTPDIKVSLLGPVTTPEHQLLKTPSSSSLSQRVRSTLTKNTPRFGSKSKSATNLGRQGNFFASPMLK

HeLa = experiment: viability loss in HeLa cells – cell-based, 24 h, cherry-picked samples, cytotoxicity control, dose response (AID 504726); type: functional; settings: Homo sapiens;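 note: potency for cytotoxicity as loss of luminescence signal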
[11] = molecular target: Endoplasmic reticulum aminopeptidase 1 (Homo sapiens, UniProt Q9NZ08); experiment: inhibition of human ERAP1 enzyme activity – biochemical, cherry-pick, set 2, plate reader, dose response (AID 743314)
[12] = OVCAR8 cell viability loss – plate reader, dry powder samples, PAX8 project, dose response (AID 743197); type: functional, cell-based; settings: OVCAR-8
[13] = NIH-3T3 fibroblast cytotoxicity, dose response, cytotoxicity control, cell-based, fluorescence, Alamar Blue, secondary assay (AID 2327); type: functional;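 note: NIH-3T3 mouse fibroblasts cultured with fluconazole at 8 µg/mL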
[14] = fluconazole-exposed Candida albicans growth modulators – fluorescence, retest, confirmation (AID 2467); type: functional, cell-based
[15] = microbe, parasite or virus in culture; type: functional; settings: Mycobacterium tuberculosis
INS1 = experiment: INS-1E survival protection against cytokine death – cell-based, luminescence, retest, dose response (AID 449756); type: functional; settings: Rattus norvegicus;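 note: cell death triggered by IL-1 beta plus TNF-alpha plus IFN-gamma mixture; protective hits raise ATP signal compared with cytokine alone wells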
[16] = molecular target: T5, DNA repair protein RAD52 homolog (Homo sapiens, UniProt P43351); type: functional, biochemical
T5 sequence (P43351 whole entry): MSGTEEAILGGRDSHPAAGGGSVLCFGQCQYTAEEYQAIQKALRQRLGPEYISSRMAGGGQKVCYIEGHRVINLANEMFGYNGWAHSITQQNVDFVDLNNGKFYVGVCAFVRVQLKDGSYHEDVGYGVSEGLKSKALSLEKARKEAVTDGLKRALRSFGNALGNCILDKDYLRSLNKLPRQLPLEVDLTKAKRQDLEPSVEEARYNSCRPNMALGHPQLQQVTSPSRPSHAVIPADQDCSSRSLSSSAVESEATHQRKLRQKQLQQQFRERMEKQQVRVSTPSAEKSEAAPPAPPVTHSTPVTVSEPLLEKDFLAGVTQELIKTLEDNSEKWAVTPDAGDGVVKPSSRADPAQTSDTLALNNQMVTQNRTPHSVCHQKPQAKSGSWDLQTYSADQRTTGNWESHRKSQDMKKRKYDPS

[17] = growth inhibition of yeast DHODH-expressing 3D7 parasites – SYBR Green, dry powder samples, dose response (AID 1159570); type: functional, cell-based;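 note: parasite growth measured after 72 hours of compound exposure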
[18] = toxicity to human HepG2 hepatoma cells – cell-based, plate reader, dry powder samples, cytotoxicity control, dose response (AID 1159569); type: functional;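 note: inhibitor potency with signal falling toward the positive control level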
[19] = P. falciparum Dd2 growth inhibitors, dose response, SYBR Green, cherry-picked samples (AID 1159567); type: functional, cell-based
[20] = Dd2 malaria parasite growth inhibition potency – SYBR Green, dry powder samples, dose response (AID 1159566); type: functional, cell-based;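 note: potency for growth inhibition with lower SYBR green DNA signal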
[21] = growth inhibition of PfATP4-mutant resistant parasites – NITD609-resistant line, SYBR Green, dry powder, dose response (AID 1159571); type: functional, cell-based;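 note: parasites synchronized at ring stage by sorbitol before testing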
[22] = HEK-293T cell viability reduction – luminescence, B-cell screen hits, cytotoxicity control for BCR NF-kB inhibitor project, dose response (AID 489021); type: functional, cell-based;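 note: HEK-293T cells carrying an NF-kB luciferase reporter; cells exposed to compound for about 14 hours before viability readout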
[23] = Luminescence Cell-Based Dose Retest to Confirm Inhibitors of Cancer Stem Cells. [Related pubchem assays (depositor defined):AID2717, AID2721]; type: functional; settings: Homo sapiens

Endoplasmic reticulum aminopeptidase 1, sequence (Q9NZ08 whole entry): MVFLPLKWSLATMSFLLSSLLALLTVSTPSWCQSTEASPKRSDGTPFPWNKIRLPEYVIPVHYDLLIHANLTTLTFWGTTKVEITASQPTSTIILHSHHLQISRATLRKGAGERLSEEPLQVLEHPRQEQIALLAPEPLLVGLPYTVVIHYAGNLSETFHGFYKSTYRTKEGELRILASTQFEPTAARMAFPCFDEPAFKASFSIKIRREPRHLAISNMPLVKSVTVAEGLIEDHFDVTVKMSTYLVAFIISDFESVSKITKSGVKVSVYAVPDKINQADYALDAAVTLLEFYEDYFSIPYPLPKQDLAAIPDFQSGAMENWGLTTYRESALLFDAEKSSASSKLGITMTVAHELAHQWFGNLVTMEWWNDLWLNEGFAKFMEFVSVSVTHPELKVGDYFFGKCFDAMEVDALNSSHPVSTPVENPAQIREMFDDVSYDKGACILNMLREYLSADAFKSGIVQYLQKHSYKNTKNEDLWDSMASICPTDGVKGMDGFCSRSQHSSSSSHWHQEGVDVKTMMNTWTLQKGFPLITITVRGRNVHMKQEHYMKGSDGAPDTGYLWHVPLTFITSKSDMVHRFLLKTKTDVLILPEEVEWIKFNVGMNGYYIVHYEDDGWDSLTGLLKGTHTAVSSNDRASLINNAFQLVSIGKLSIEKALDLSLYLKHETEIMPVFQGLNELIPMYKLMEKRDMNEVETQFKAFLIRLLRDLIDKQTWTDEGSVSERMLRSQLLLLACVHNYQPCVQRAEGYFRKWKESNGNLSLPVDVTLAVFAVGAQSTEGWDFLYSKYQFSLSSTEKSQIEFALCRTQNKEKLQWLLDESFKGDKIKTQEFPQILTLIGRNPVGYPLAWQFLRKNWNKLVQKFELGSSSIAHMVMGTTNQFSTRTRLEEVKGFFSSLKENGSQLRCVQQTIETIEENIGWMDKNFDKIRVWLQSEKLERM
Paired box protein Pax-8, sequence (Q06710 whole entry): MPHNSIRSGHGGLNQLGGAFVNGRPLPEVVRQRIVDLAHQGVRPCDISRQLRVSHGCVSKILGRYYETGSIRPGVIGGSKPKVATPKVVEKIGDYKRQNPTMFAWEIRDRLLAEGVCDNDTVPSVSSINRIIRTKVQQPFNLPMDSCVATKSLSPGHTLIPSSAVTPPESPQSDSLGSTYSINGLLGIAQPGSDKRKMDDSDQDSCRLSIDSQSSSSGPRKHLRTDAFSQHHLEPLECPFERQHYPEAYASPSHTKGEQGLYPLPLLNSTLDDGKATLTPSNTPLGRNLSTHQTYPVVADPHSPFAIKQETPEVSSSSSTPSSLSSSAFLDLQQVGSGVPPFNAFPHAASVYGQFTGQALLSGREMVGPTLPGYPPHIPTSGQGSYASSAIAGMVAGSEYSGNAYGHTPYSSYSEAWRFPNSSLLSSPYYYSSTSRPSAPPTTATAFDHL
Neurotensin receptor type 1, sequence (P30989 whole entry): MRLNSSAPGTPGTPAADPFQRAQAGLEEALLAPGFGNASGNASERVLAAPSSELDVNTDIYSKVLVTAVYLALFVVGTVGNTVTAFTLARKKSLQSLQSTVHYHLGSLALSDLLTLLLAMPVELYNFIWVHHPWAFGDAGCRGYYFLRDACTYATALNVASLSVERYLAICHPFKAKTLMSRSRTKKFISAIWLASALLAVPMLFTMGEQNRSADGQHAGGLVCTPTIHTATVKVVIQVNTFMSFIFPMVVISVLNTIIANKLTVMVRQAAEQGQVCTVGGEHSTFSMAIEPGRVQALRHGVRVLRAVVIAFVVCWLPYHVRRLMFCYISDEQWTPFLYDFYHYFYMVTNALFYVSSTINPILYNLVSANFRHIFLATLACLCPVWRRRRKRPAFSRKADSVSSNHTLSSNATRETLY
Genome polyprotein, sequence (P29990 2492-3391 limits assumed): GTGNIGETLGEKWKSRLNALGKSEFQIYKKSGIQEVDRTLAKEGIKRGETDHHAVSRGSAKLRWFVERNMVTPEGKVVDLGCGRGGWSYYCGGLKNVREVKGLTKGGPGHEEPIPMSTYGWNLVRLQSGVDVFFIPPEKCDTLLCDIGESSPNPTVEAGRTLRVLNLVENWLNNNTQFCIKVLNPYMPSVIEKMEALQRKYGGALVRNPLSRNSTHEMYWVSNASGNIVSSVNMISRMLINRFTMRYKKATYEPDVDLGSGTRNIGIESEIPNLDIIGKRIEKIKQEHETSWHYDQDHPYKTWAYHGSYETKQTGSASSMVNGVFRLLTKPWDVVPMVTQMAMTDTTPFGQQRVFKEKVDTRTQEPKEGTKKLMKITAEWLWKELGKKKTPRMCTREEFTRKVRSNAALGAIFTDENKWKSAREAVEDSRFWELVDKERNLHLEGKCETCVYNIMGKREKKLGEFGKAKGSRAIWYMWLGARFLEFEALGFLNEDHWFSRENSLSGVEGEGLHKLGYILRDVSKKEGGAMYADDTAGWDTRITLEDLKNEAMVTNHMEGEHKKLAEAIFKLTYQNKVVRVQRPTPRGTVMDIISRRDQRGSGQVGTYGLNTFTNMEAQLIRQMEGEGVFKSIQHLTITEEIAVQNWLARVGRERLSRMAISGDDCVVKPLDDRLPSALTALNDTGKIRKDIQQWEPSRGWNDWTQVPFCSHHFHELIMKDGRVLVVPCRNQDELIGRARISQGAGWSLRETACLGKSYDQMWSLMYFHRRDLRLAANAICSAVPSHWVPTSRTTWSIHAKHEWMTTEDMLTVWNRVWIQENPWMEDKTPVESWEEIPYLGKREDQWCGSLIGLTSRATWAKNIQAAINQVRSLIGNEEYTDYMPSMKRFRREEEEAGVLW
Luciferin 4-monooxygenase, sequence (P08659 whole entry): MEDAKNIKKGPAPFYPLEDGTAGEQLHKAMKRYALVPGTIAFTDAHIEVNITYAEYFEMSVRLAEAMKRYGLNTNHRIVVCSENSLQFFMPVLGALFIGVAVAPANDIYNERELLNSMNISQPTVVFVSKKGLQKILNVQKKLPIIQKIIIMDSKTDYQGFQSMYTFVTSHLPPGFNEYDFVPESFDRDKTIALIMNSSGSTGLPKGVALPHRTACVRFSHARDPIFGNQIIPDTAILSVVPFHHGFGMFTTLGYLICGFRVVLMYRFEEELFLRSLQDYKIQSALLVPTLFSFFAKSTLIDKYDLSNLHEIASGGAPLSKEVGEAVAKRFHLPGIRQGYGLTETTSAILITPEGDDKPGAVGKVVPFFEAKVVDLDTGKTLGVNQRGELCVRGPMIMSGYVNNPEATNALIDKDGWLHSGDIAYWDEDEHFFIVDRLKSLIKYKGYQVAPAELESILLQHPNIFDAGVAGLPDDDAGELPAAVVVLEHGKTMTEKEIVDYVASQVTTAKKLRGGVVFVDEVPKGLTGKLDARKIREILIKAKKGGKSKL

O=C(CCNC(=O)c1ccc(Br)cc1)NC1CCCc2ccccc21 (configuration not stated)
CC50 [1]: 43.7 µM (active) | IC50 (Vero): 9.27 µM (active) | IC50 (cells): 6.76 µM (active)

O=C(/C=C/Nc1ccccc1F)c1cccs1
EC50 [2]: 0.641 µM (active) | EC50 [3]: 4.56 µM (active) | IC50 (Protein skinhead-1): 14.7 µM (active) | IC50 [4]: > 67.6 µM (inactive)

COC(=O)C12OCC34C(CC5C(C)=C(O)C(=O)CC5(C)C3C(O)C1O)OC(=O)C(OC(=O)C=C(C)C)C24 (configuration not stated)
AC50 [5]: < 0.26 µM (active) | GI50 (P388/ADR): > 500 µM (inactive) | AC50 [6]: 0.687 µM (active) | GI50 (SN12K1): 277 µM (inactive) | GI50 (P388): > 500 µM (inactive) | IC50 (Protein skinhead-1): 35.7 µM (active) | AC50 (Paired box protein Pax-8): < 0.26 µM (active) | IC50 [7]: 0.0223 µM (active)

COc1ccc(Cc2nn3c(-c4cc(OC)c(OC)c(OC)c4)nnc3s2)cc1
IC50 [8]: > 100 µM (not active)

CC1(C)CC(=O)C(C(C2=C(O)CC(C)(C)CC2=O)c2ccc(Br)s2)C(=O)C1 (configuration not stated)
EC50 [9]: 19.6 µM (active) | IC50 (Genome polyprotein): 21.5 µM (active) | IC50 [10]: 61.5 µM (active)

Cc1ccc(NC(=O)CN(C)C(=O)CSc2nc3ccccc3c(=O)n2Cc2ccco2)cc1
CC50 [1]: 36.7 µM (active) | IC50 (cells): 44.3 µM (active)

Cc1ccc(/C=C/S(=O)(=O)N2CCC(C(=O)O)CC2)cc1
AC50 (HeLa): > 350 µM (inactive)

CN(C)Cc1c(O)ccc2cc(-c3nc4ccccc4n3C)c(=O)oc12
AC50 [11]: 1.56 µM (active)

N#Cc1c(N2CCNCC2)nc(-c2ccco2)c2c1CCCC2
AC50 [11]: 6.11 µM (active)

Cc1cc(C(=O)Nc2cccc3c2O[C@H](CN(C)Cc2ccc(Oc4ccccc4)cc2)[C@@H](C)CN([C@H](C)CO)C3=O)n(C)n1
AC50 (Paired box protein Pax-8): 13.2 µM (active) | AC50 [12]: > 70 µM (inactive)

Oc1ccc(-[n+]2c(-c3ccccc3)cc(-c3ccccc3)cc2-c2ccccc2)cc1.[O-][Cl+3]([O-])([O-])[O-]
EC50 [13]: > 160 µM (inactive) | EC50 [14]: 0.879 µM (active) | CC50 [15]: 9.19 µM (active) | AC50 (INS1): 3.38 µM (active) | AC50 [16]: 9.88 µM (active) | IC50 [7]: 9.1 µM (active)

N#C[C@H]1[C@@H](c2ccc(C#Cc3ccccc3F)cc2)[C@@H](CO)N1C(=O)C1CCC1
AC50 [17]: 0.779 µM (active) | AC50 [18]: 44.9 µM (active) | AC50 [19]: 1.57 µM (active) | AC50 [20]: 0.613 µM (active) | AC50 [21]: 1.04 µM (active)

C[C@H](CO)N1C[C@H](C)[C@H](CN(C)C(=O)Nc2cc(F)ccc2F)Oc2cc(/C=C/c3ccccc3)ccc2S1(=O)=O
AC50 [17]: 2.62 µM (active) | AC50 [18]: 86.7 µM (active) | AC50 [19]: 1.77 µM (active) | AC50 [20]: 0.962 µM (active) | AC50 [21]: 2.06 µM (active)

CC(C)(O)/C=C/C(=O)[C@](C)(O)C1[C@H](O)C[C@@]2(C)C3CC=C4C(C[C@H](O)[C@@H](O)C4(C)C)[C@]3(C)C(=O)C[C@]12C (some centres not stated)
IC50 [22]: > 80 µM (inactive)

CCCCNc1c(-c2ccc(OC)c(SC(C)CC)c2)nc2ccc(C)cn12 (configuration not stated)
AC50 [23]: 6.87 µM (active) | EC50 [9]: 15.4 µM (active) | AC50 (INS1): 4.34 µM (active)

CC(=O)N1[C@@H]2c3ccc(/C=C/c4ccccc4)c(=O)n3C[C@H]1[C@H](CO)[C@H]2C(=O)N1CCOCC1
AC50 [11]: 3.12 µM (active)

COc1cccc(CN2CCCCN3[C@H](CO)[C@@H](c4ccc(C#Cc5cccnc5)cc4)[C@@H]3C2)c1
AC50 [17]: 2.2 µM (active) | AC50 [18]: 22.7 µM (active) | AC50 [19]: 1.34 µM (active) | AC50 [20]: 0.427 µM (active) | AC50 [21]: 1.21 µM (active)
